According to patent US10456379B2, “Imidazole-based antimicrobial agents” (priority 2014, dated 2019):
Converted amounts (≈) assume the structure as drawn. Like-named read-outs stand apart in the source and are kept apart here.

Key:
[1] = system: Mycobacterium smegmatis (mc(2)155); test: Broth microdilution MIC assay, Mycobacterium smegmatis
[2] = system: platensimycin-resistant Staphylococcus aureus (from MRSA COL); test: Broth microdilution MIC assay, platensimycin-resistant MRSA; assay type: cell-based; settings: 24 h, read-out: Antibacterial activity, MRSA strains with additional resistance, P (platensimycin), MIC class
[3] = system: vancomycin-resistant Enterococcus faecium (ATCC51559); test: microbe, parasite or virus in culture; assay type: cell-based
[4] = system: moenomycin-resistant Staphylococcus aureus (from MRSA COL); test: Broth microdilution MIC assay, moenomycin-resistant MRSA; assay type: cell-based; settings: 24 h, read-out: Antibacterial activity, MRSA strains with additional resistance, M (moenomycin), MIC class
[5] = system: Bacillus subtilis (Marburg strain, ATCC6051); test: microbe, parasite or virus in culture; assay type: cell-based; settings: ATCC6051, read-out: Antibacterial activity, BS (Bacillus substilis), MIC class
[6] = system: Streptococcus pneumoniae (Chester, ATCC49619); test: Broth microdilution MIC assay, Streptococcus pneumoniae; assay type: cell-based; settings: for Antibacterial activity Streptococcus pneumoniae: MIC class score, MIC100, broth microdilution; for MIC: Streptococcus pneumoniae, ATCC49619, read-out: Antibacterial activity, SP (Streptococcus pneumoniae), MIC class
[7] = system: daptomycin-resistant Staphylococcus aureus (from MRSA COL); test: Broth microdilution MIC assay, daptomycin-resistant MRSA; assay type: cell-based; settings: 24 h, read-out: Antibacterial activity, MRSA strains with additional resistance, D (daptomycin), MIC class
[8] = system: linezolid-resistant Staphylococcus aureus (from MRSA COL); test: Broth microdilution MIC assay, linezolid-resistant MRSA; assay type: cell-based; settings: 24 h, read-out: Antibacterial activity, MRSA strains with additional resistance, L (linezolid), MIC class
[9] = system: vancomycin-resistant Staphylococcus aureus (from MRSA COL); test: Broth microdilution MIC assay, vancomycin-resistant MRSA; assay type: cell-based; settings: 24 h, read-out: Antibacterial activity, MRSA strains with additional resistance, V (vancomycin), MIC class
[10] = system: MRSA (COL) resistant to triclosan; test: Broth microdilution MIC assay, triclosan-resistant MRSA; settings: Staphylococcus aureus, read-out: Antibacterial activity, MRSA strains with additional resistance, T (triclosan), MIC class
[11] = system: vancomycin-resistant Enterococcus faecalis (ATCC51575); test: microbe, parasite or virus in culture; assay type: cell-based
[12] = system: Enterococcus faecalis (ATCC29212); test: Broth microdilution MIC assay, Enterococcus faecalis; assay type: cell-based; settings: read-out: Antibacterial activity, EFs (Enterococcus faecalis), MIC class
[13] = system: Staphylococcus epidermidis (PCI 1200, ATCC12228); test: Broth microdilution MIC assay, Staphylococcus epidermidis; assay type: cell-based; settings: read-out: Antibacterial activity, SE (Staphylococcus epidermidis), MIC class
[14] = system: Enterococcus faecium (AGR15, ATCCBAA-2127); test: Broth microdilution MIC assay, Enterococcus faecium; assay type: cell-based; settings: ATCCBAA2127, read-out: Antibacterial activity, EFm (Enterococcus faecium), MIC class
[15] = system: Staphylococcus aureus MRSA (COL); test: Broth microdilution MIC assay, Staphylococcus aureus MRSA (COL); assay type: cell-based; settings: MIC class score, MIC100, broth microdilution, COL strain
[16] = system: Staphylococcus aureus MSSA (Newman); test: Broth microdilution MIC assay, Staphylococcus aureus MSSA (Newman); assay type: cell-based; settings: MIC class score, MIC100, broth microdilution, Newman strain
[17] = system: Escherichia coli TolC mutant strain ΔtolC; assay type: cell-based
[18] = ATCC51559, vancomycin-resistant Enterococcus faecium, read-out: Antibacterial activity, VREFm (vancomycin-resistant EFm), MIC class
[19] = Enterococcus faecium, ATCC51559, read-out: Antibacterial activity, VREFm (vancomycin-resistant EFm), MIC class
[20] = ATCC51575, vancomycin-resistant Enterococcus faecalis, read-out: Antibacterial activity, VREFs (vancomycin-resistant EFs), MIC class

## Cc1nc(-c2ccc(-c3ccc(Cl)cc3Cl)o2)[nH]c1-c1ccccc1 [compound 1]
[1]
  Antibacterial activity, MS (Mycobacterium smegmatis), MIC class: 2 (MIC100 of 11-20 μg/ml)
[2]
  MIC: 3 to 10 µg/mL (≈ 8.12 to 27.1 µM)
[3]; [18]
  MIC: 20 to 50 µg/mL (≈ 54.2 to 135 µM)
[4]
  MIC: 3 to 10 µg/mL (≈ 8.12 to 27.1 µM)

## Cc1[nH]c(-c2ccc(-c3ccc(Cl)cc3)s2)nc1-c1ccccc1 [compound 6]
[1]
  Antibacterial activity, MS (Mycobacterium smegmatis), MIC class: 2 (MIC100 of 11-20 μg/ml)
[5]
  MIC: 11 to 20 µg/mL (≈ 31.4 to 57 µM)
[6]
  Antibacterial activity Streptococcus pneumoniae: 3 (MIC100 of 2-5 μg/ml)

## Cc1nc(-c2ccc(-c3ccccc3OC(F)(F)F)o2)[nH]c1-c1ccccc1Cl [compound 19]
[7]
  MIC: 3 to 10 µg/mL (≈ 7.16 to 23.9 µM)
[8]
  MIC: 3 to 10 µg/mL (≈ 7.16 to 23.9 µM)
[1]
  Antibacterial activity, MS (Mycobacterium smegmatis), MIC class: 2 (MIC100 of 11-20 μg/ml)
[6]
  MIC: < 1 µg/mL
[3]; [19]
  MIC: 20 to 50 µg/mL (≈ 47.8 to 119 µM)

## Cc1[nH]c(-c2ccc(-c3ccccc3OC(F)(F)F)o2)nc1-c1ccc(Cl)cc1 [compound 24]
[7]
  MIC: 1 to 3 µg/mL (≈ 2.39 to 7.16 µM)
[9]
  MIC: 1 to 3 µg/mL (≈ 2.39 to 7.16 µM)
[10]
  MIC: 1 to 3 µg/mL (≈ 2.39 to 7.16 µM)
[11]; [20]
  MIC: 20 to 50 µg/mL (≈ 47.8 to 119 µM)
[2]
  MIC: 11 to 20 µg/mL (≈ 26.3 to 47.8 µM)
[12]
  MIC: 20 to 50 µg/mL (≈ 47.8 to 119 µM)

## Cc1[nH]c(-c2ccc(-c3ccccc3OC(F)(F)F)o2)nc1Cc1ccc(Br)cc1 [compound 30, 4-(4-Bromo-benzyl)-5-methyl-2-[5-(2-trifluoromethoxy-phenyl)-furan-2-yl]-1H-imidazole]
[7]
  MIC: 1 to 3 µg/mL (≈ 2.1 to 6.29 µM)
[10]
  MIC: 11 to 20 µg/mL (≈ 23 to 41.9 µM)
[2]
  MIC: 20 to 50 µg/mL (≈ 41.9 to 105 µM)
[3]; [18]
  MIC: 20 to 50 µg/mL (≈ 41.9 to 105 µM)
[13]
  MIC: 11 to 20 µg/mL (≈ 23 to 41.9 µM)

## Cc1nc(-c2ccc(-c3ccc(Cl)cc3C(F)(F)F)o2)[nH]c1-c1ccccc1 [compound 32]
[5]
  MIC: 3 to 10 µg/mL (≈ 7.45 to 24.8 µM)
[6]
  Antibacterial activity Streptococcus pneumoniae: 3 (MIC100 of 2-5 μg/ml)
  MIC: 2 to 5 µg/mL (≈ 4.97 to 12.4 µM)
[3]; [18]
  MIC: 20 to 50 µg/mL (≈ 49.7 to 124 µM)

## Cc1nc(-c2ccc(-c3cccc(OC(F)(F)F)c3)o2)[nH]c1-c1ccccc1 [compound 34]
[10]
  MIC: 3 to 10 µg/mL (≈ 7.81 to 26 µM)
[1]
  Antibacterial activity, MS (Mycobacterium smegmatis), MIC class: 2 (MIC100 of 11-20 μg/ml)
[2]
  MIC: 11 to 20 µg/mL (≈ 28.6 to 52 µM)
[6]
  Antibacterial activity Streptococcus pneumoniae: 3 (MIC100 of 2-5 μg/ml)
  MIC: 2 to 5 µg/mL (≈ 5.2 to 13 µM)
[3]; [18]
  MIC: 20 to 50 µg/mL (≈ 52 to 130 µM)
[12]
  MIC: 20 to 50 µg/mL (≈ 52 to 130 µM)
[4]
  MIC: 3 to 10 µg/mL (≈ 7.81 to 26 µM)

## Cc1nc(-c2ccc(-c3ccc(C(F)(F)F)cc3)o2)[nH]c1-c1ccccc1 [compound 45]
[7]
  MIC: 1 to 3 µg/mL (≈ 2.71 to 8.14 µM)
[9]
  MIC: 1 to 3 µg/mL (≈ 2.71 to 8.14 µM)
[8]
  MIC: 1 to 3 µg/mL (≈ 2.71 to 8.14 µM)
[11]; [20]
  MIC: 20 to 50 µg/mL (≈ 54.3 to 136 µM)
[6]
  MIC: < 1 µg/mL

## Cc1[nH]c(-c2ccc(-c3ccc(C(F)(F)F)c(Cl)c3)o2)nc1-c1ccc(F)cc1 [compound 49]
[7]
  MIC: 1 to 3 µg/mL (≈ 2.38 to 7.13 µM)
[14]
  MIC: 20 to 50 µg/mL (≈ 47.5 to 119 µM)
[10]
  MIC: 1 to 3 µg/mL (≈ 2.38 to 7.13 µM)
[8]
  MIC: 11 to 20 µg/mL (≈ 26.1 to 47.5 µM)
[11]; Enterococcus faecalis, ATCC51575, read-out: Antibacterial activity, VREFs (vancomycin-resistant EFs), MIC class
  MIC: 20 to 50 µg/mL (≈ 47.5 to 119 µM)
[15]
  Antibacterial activity Staphylococcus aureus (MRSA): 2 (MIC100 of 11-20 μg/ml)
[16]
  Antibacterial activity Staphylococcus aureus (MSSA): 3 (MIC100 of 3-10 μg/ml)
[6]
  Antibacterial activity Streptococcus pneumoniae: 3 (MIC100 of 2-5 μg/ml)
  MIC: 2 to 5 µg/mL (≈ 4.75 to 11.9 µM)
[3]; [19]
  MIC: 20 to 50 µg/mL (≈ 47.5 to 119 µM)
[12]
  MIC: 11 to 20 µg/mL (≈ 26.1 to 47.5 µM)
[13]
  MIC: 11 to 20 µg/mL (≈ 26.1 to 47.5 µM)

## Cc1[nH]c(-c2ccc(-c3cccc(F)c3C)o2)nc1-c1ccccc1 [compound 60]
[7]
  MIC: 1 to 3 µg/mL (≈ 3.01 to 9.03 µM)
[8]
  MIC: 1 to 3 µg/mL (≈ 3.01 to 9.03 µM)
[1]
  Antibacterial activity, MS (Mycobacterium smegmatis), MIC class: 2 (MIC100 of 11-20 μg/ml)
[6]
  Antibacterial activity Streptococcus pneumoniae: 3 (MIC100 of 2-5 μg/ml)
[12]
  MIC: 20 to 50 µg/mL (≈ 60.2 to 150 µM)

## FC(F)(F)Oc1ccccc1-c1ccc(-c2nc(Cl)c(-c3ccccc3)[nH]2)o1 [compound 64]
[7]
  MIC: 1 to 3 µg/mL (≈ 2.47 to 7.41 µM)
[9]
  MIC: 1 to 3 µg/mL (≈ 2.47 to 7.41 µM)
[16]
  Antibacterial activity Staphylococcus aureus (MSSA): 2 (MIC100 of 11-20 μg/ml)
[6]
  MIC: < 1 µg/mL
[4]
  MIC: 1 to 3 µg/mL (≈ 2.47 to 7.41 µM)

## Cc1ccccc1-c1c[nH]c(-c2ccc(-c3ccccc3OC(F)(F)F)o2)n1 [compound 66]
[7]
  MIC: 1 to 3 µg/mL (≈ 2.6 to 7.81 µM)
[8]
  MIC: 1 to 3 µg/mL (≈ 2.6 to 7.81 µM)
[11]; [20]
  MIC: 20 to 50 µg/mL (≈ 52 to 130 µM)
[1]
  Antibacterial activity, MS (Mycobacterium smegmatis), MIC class: 2 (MIC100 of 11-20 μg/ml)
[15]
  Antibacterial activity Staphylococcus aureus (MRSA): 2 (MIC100 of 11-20 μg/ml)
[16]
  Antibacterial activity Staphylococcus aureus (MSSA): 3 (MIC100 of 3-10 μg/ml)
[2]
  MIC: 11 to 20 µg/mL (≈ 28.6 to 52 µM)
[6]
  MIC: < 1 µg/mL
[3]; [18]
  MIC: 20 to 50 µg/mL (≈ 52 to 130 µM)

## CN(C)Cc1[nH]c(-c2ccc(-c3ccccc3C(F)(F)F)o2)nc1-c1ccccc1 [compound 70]
[7]
  MIC: 3 to 10 µg/mL (≈ 7.29 to 24.3 µM)
[14]
  MIC: 11 to 20 µg/mL (≈ 26.7 to 48.6 µM)
[11]; [20]
  MIC: 11 to 20 µg/mL (≈ 26.7 to 48.6 µM)
[6]
  Antibacterial activity Streptococcus pneumoniae: 3 (MIC100 of 2-5 μg/ml)
  MIC: 2 to 5 µg/mL (≈ 4.86 to 12.2 µM)
[3]; [18]
  MIC: 11 to 20 µg/mL (≈ 26.7 to 48.6 µM)
[12]
  MIC: 11 to 20 µg/mL (≈ 26.7 to 48.6 µM)
[13]
  MIC: 11 to 20 µg/mL (≈ 26.7 to 48.6 µM)
[17]
  Antibacterial activity, EC Δ (Escherichia coli ΔtoIC), MIC class: 3 (MIC100 of 3-10 μg/ml)
